The text below walks through data of patent US20100015058A1, “RADIOLABELED BBN-RGD HETERODIMERS FOR CANCER TARGETING” (STANFORD UNIVERSITY, priority 2008, published 2010).

One series has as its target T1, integrin αvβ3 (Homo sapiens, UniProt P05106+P06756).
T1 construct: Experiments were performed on U87MG human glioma cells expressing integrin αvβ3 as previously described; endogenous in cells; host or cells: U87MG human glioblastoma (glioma) cells
The series can be described thus: Competitive cell-binding assay with ^125I-c(RGDyK) on U87MG cells. Conditions: FIG. 14A.

Series [1] in a line: Small-animal PET of PC-3 tumor-bearing mice. To be noted: male, athymic nude, mouse, in vivo, iv, 3.7 MBq, total radioactivity, PC-3 tumor uptake, PET ROI. The method, then: (a) PET scans and image analysis were performed using a micro-PET R4 rodent model scanner (Siemens Medical Solutions) as reported by Li et al., J. Nucl. Med. (2007) 48: 1162-1171 and Wu et al., J Nucl. Med. (2005) 46: 1707-1718, both of which are incorporated herein by reference in their entireties). […] Five-minute static PET images were then acquired at 0.5, 1, and 2 h after injection. The images were reconstructed by a 2-dimensional ordered-subsets expectation maximum (OSEM) algorithm. No attenuation or scatter correction was applied. […] The 5-min static PET scans were then acquired at 1 hr after injection. For each small-animal PET scan, regions of interest (ROIs) were drawn over the tumor, normal tissue, and major organs by using vendor software (ASI Pro 5.2.4.0) on decay-corrected whole-body coronal images. The average radioactivity concentration (accumulation) within a tumor or an organ was obtained from mean pixel values within the multiple ROI volume, which were converted to counts/mL/min using a conversion factor. Assuming a tissue density of 1 g/mL, the ROIs were converted to counts/g/min, and then divided by the administered activity to obtain an imaging ROI-derived percentage injected dose per gram of tissue (% ID/g).
For dynamic PET, 30-min scans (1×30 s, 4×1 min, 1×1.5 min, 4×2 min, 5×3 min; total 15 frames) were started 1 min after injection, and two 5-min static PET images were also acquired at 1 h and 2 h after injection. […] For each small-animal PET scan, regions of interest (ROIs) were drawn over the tumor, normal tissue, and major organs using vendor software ASI Pro 5.2.4.0 on decay-corrected whole-body coronal images. The maximum radioactivity concentrations (accumulation) within a tumor or an organ were obtained from mean pixel values within the multiple ROI volume, and were converted to megabecquerels per milliliter per minute using a conversion factor. These values were then divided by the administered activity to obtain (assuming a tissue density of 1 g/ml) an image ROI-derived percent injected dose per gram (% ID/g).
The images were reconstructed using a 2-dimensional ordered-subsets expectation maximum algorithm without attenuation or scatter correction.
For each small-animal PET scan, regions of interest were drawn over each tumor, over normal tissue, and over major organs using vendor software (ASI Pro, version 5.2.4.0) on decay-corrected whole-body coronal images. The maximum radioactivity concentration (accumulation) within a tumor or an organ was obtained from the mean pixel values within the multiple-region-of-interest volume, which were converted to MBq/mL/min using a conversion factor. Assuming a tissue density of 1 g/mL, the regions of interest were converted to MBq/g/min and then divided by the administered activity to obtain an imaging region-of-interest-derived percentage injected dose (% ID)/g.

The subject of the next series is DU-145 tumor. Type of series: in vivo, mice. To be noted: integrin αvβ3-positive, low GRPR-expressing tumor. The method, then:
The PC-3 and DU-145 human prostate carcinoma cell lines were purchased from American Type Culture Collection. PC-3 cells were grown in F-12K nutrient mixture (Kaighn's modification) (Invitrogen Corp.), and DU-145 cells were grown in minimum essential medium (Eagle) mixture supplemented with 10% (v/v) fetal bovine serum (Invitrogen) at 37° C. with 5% CO2. The PC-3 and DU-145 tumor models were generated by subcutaneous injection of 5×10^6 tumor cells into the front flank of male athymic nude mice (Harlan).
No attenuation or scatter correction was applied.

The nature of series [2]: Small-animal PET of MDA-MB-435 tumor-bearing mice. To be noted: female, athymic nude, mouse, in vivo, iv, total radioactivity; 30 min p.i., BBN tracer control study, FIG. 44B; read-out: MDA-MB-435 tumor uptake.
The nature of series [3]: Octanol/water partition coefficient. In kind it is physicochemical. Conditions: octanol / PBS pH 7.4, room temperature. The method, then: The mixture was vigorously vortexed for 1 min at room temperature. After centrifugation at 12,500 rpm for 5 min in an Eppendorf microcentrifuge (model 5415R; Brinkman), 200-μL aliquots of both layers were measured using a 7-counter (Packard Instruments). The experiment was performed in triplicate.

The test system of another series is PC-3 tumor cells. The series can be described thus: Cell uptake assay on PC-3 tumor cells. Type of series: cell-based, human. Conditions: PC-3 cells, 37° C., within 30 min of incubation, plateau afterward. Here is the method: In the cell uptake experiment, PC-3 cells were seeded into 12-well plates at a density of 5×10^5 cells per well for overnight incubation. Cells were rinsed 3 times with phosphate-buffered saline (PBS), followed by the addition of ^18F-FB-RGD, ^18F-FB-BBN, or ^18F-BBN-RGD to the cultured wells in triplicate (about 2 μCi/well). […] The cell lysate was collected in measurement tubes for counting. The cell uptake was normalized in terms of added radioactivity.
The cell uptake studies were performed as we have previously described with some modifications (Chen et al., Mol Imaging Biol. (2004) […]; Cai et al., (2006) J. Nuc. Med. 47: 1172-1180, incorporated herein by reference in their entireties). Briefly, PC-3 cells were seeded into 12-well plates at a density of 5×10^5 cells per well and incubated (about 18 kBq/well) with ^68Ga-labeled tracers at 37° C. for 15, 30, 60, and 120 min. Tumor cells were then washed three times with chilled PBS and harvested by trypsinization with 0.25% trypsin/0.02% EDTA (Invitrogen). The cell suspensions were collected and measured in a y counter (Packard, Meriden, Conn.). The cell uptake was expressed as the percent added dose (% AD) after decay correction. Experiments were performed twice with triplicate wells. For efflux studies, ^68Ga-labeled tracers (about 18 kBq/well) were first incubated with PC-3 cells in 12-well plates for 1 h at 37° C. to allow internalization. Then cells were washed twice with PBS, and incubated with cell culture medium for 15, 30, and 60 min. After washing three times with PBS, cells were harvested by trypsinization with 0.25% trypsin/0.02% EDTA. The cell suspensions were collected and measured in a γ counter. Experiments were performed twice with triplicate wells. Data are expressed as percent added dose after decay correction.

A word on the logP: it is the decadic logarithm of the partition coefficient of the neutral form, usually between octanol and water. A lower logP goes with lower lipophilicity.

With `CSCC[C@H](NC(=O)[C@H](CC(C)C)NC(=O)[C@H](Cc1c[nH]cn1)NC(=O)CNC(=O)[C@@H](NC(=O)[C@H](C)NC(=O)[C@H](Cc1c[nH]c2ccccc12)NC(=O)[C@H](CCC(N)=O)NC(=O)CCCCCN)C(C)C)C(N)=O` [Aca-BBN(7-14)], the “binding inhibition of ^125I-c(RGDyK)” value on integrin αvβ3 is “did not show significant binding inhibition”.
With `CSCC[C@H](NC(=O)[C@H](CC(C)C)NC(=O)[C@H](Cc1c[nH]cn1)NC(=O)CNC(=O)[C@@H](NC(=O)[C@H](C)NC(=O)[C@H](Cc1c[nH]c2ccccc12)NC(=O)[C@H](CCC(N)=O)NC(=O)CCCCCNC(=O)c1ccc(F)cc1)C(C)C)C(N)=O` [^18F-FB-BBN, reference compound], the values for the tissue uptake at 0.5 h in series [1] (30 min after injection of 3.7 MBq) and in series [2] were 0.63 ± 0.16 %ID/g and 0.45 ± 0.11 %ID/g, respectively. The tissue uptake at 1 h in series [1] (60 min after injection of 3.7 MBq, no blocking) is 0.44 ± 0.1 %ID/g. In addition, the tissue uptake at 2 h in series [1] (120 min after injection of 3.7 MBq) is 0.29 ± 0.08 %ID/g. Further, in the series on DU-145 tumor, the “detection of the DU-145 tumor by PET” value was “unable to detect the DU-145 tumor”. The compound also had a logP in series [3] of 1.49 ± 0.02. Also, in the series on PC-3 tumor cells, the cell uptake entry is listed as “about 7%”.
